# Values of other authors, collected in US20170216273A1, “Nicotine Derivatives and Methods of Use” (priority 2014, published 2017).
# Settings: approximately; no test described
row,SMILES,potency relative to the L isomer
1,CN1CCC[C@H]1c1cccnc1 (racemic) [Racemic nicotine],70-80 % of the L isomer's potency
2,"CN1CCC[C@@H]1c1cccnc1 (single isomer, unassigned) [D isomer of nicotine, D-nicotine]",25-30 % of the L isomer's potency
